In paper PMC4303209, “A novel phosphatidylinositol 3-kinase (PI3K) inhibitor directs a potent FOXO-dependent, p53-independent cell cycle arrest phenotype characterized by the differential induction of a subset of FOXO-regulated genes” (Breast Cancer Research : BCR, 2014):

System: MCF-7 breast cancer cells
Assay: Microarray gene expression analysis (Agilent whole human genome 4 x 44K; compound vs DMSO, LIMMA log2 fold change)
Format: cell-based

Cn1ncc2c(N3CCOCC3)nc(-c3cccc(O)c3)nc21 [ETP-45658]
EYA1 log2FC (gene EYA1 (2138), apoptosis genes): 0.012 | log2FC EYA1 (gene EYA1 (Gene 2138), cell cycle genes): 0.012 | FABP1 log2FC (gene FABP1 (2168), apoptosis genes): 0.009 | FAIM2 log2FC (gene FAIM2 (23017), apoptosis genes): -0.062 | FAM3B log2FC (gene FAM3B (54097), apoptosis genes): -0.028 | FAM32A log2FC (gene FAM32A (26017), apoptosis genes): -0.032 | log2FC FAM32A (gene FAM32A (Gene 26017), cell cycle genes): -0.032 | log2FC (gene FAM58A (Gene 92002), cell cycle genes): 0.217 | FAS log2FC (gene FAS (355), apoptosis genes): -0.032 | log2FC (gene FBXL15 (Gene 79176), cell cycle genes): 0.209 | log2FC FGFR1OP (gene FGFR1OP (Gene 11116), cell cycle genes): -0.035 | FIS1 log2FC (gene FIS1 (51024), apoptosis genes): -0.018 | FKSG2 log2FC (gene FKSG2 (59347), apoptosis genes): 0.133 | log2FC (gene FMN2 (Gene 56776), cell cycle genes): 0.105 | FOXB1 log2FC (gene FOXB1 (27023), apoptosis genes): -0.340 | log2FC (gene FSD1 (Gene 79187), cell cycle genes): -0.401 | GADD45G log2FC (gene GADD45G (10912), apoptosis genes): -0.067 | GAPDH log2FC (gene GAPDH (2597), apoptosis genes): -0.037 | log2FC (gene GAS2L1 (Gene 10634), cell cycle genes): -0.313 | log2FC GAS2L2 (gene GAS2L2 (Gene 246176), cell cycle genes): -0.00355 | GAS6 log2FC (gene GAS6 (2621), apoptosis genes): -0.052 | GATA6 log2FC (gene GATA6 (2627), apoptosis genes): -0.019 | log2FC GATA6 (gene GATA6 (Gene 2627), cell cycle genes): -0.019 | GCG log2FC (gene GCG (2641), apoptosis genes): 0.020 | GCLM log2FC (gene GCLM (2730), apoptosis genes): -0.092 | GCM2 log2FC (gene GCM2 (9247), apoptosis genes): -0.015 | log2FC (gene GEM (Gene 2669), cell cycle genes): 0.406 | GFRAL log2FC (gene GFRAL (389400), apoptosis genes): 0.017 | GHRL log2FC (gene GHRL (51738), apoptosis genes): -0.012 | GIMAP5 log2FC (gene GIMAP5 (55340), apoptosis genes): 0.026 | GJB6 log2FC (gene GJB6 (10804), apoptosis genes): -0.056 | log2FC (gene GOLGA2 (Gene 2801), cell cycle genes): 0.210 | log2FC (gene GORASP1 (Gene 64689), cell cycle genes): 0.146 | log2FC (gene GORASP2 (Gene 26003), cell cycle genes): -0.256 | GPI log2FC (gene GPI (2821), apoptosis genes): -0.083 | GPR65 log2FC (gene GPR65 (8477), apoptosis genes): 0.021 | GRK1 log2FC (gene GRK1 (6011), apoptosis genes): -0.013 | log2FC (gene GTPBP8 (Gene 29083), cell cycle genes): 0.316 | log2FC (gene GTSE1 (Gene 51512), cell cycle genes): -0.374 | log2FC H1FOO (gene H1FOO (Gene 132243), cell cycle genes): 0.014 | HCLS1 log2FC (gene HCLS1 (3059), apoptosis genes): 0.022 | log2FC (gene HELLS (Gene 3070), cell cycle genes): 0.388 | HIPK3 log2FC (gene HIPK3 (10114), apoptosis genes): 0.006 | log2FC HORMAD2 (gene HORMAD2 (Gene 150280), cell cycle genes): 0.014 | log2FC HPGD (gene HPGD (Gene 3248), cell cycle genes): 0.013 | HPN log2FC (gene HPN (3249), apoptosis genes): -0.022 | HTRA2 log2FC (gene HTRA2 (27429), apoptosis genes): 0.031 | log2FC HTRA2 (gene HTRA2 (Gene 27429), cell cycle genes): 0.031 | IFI6 log2FC (gene IFI6 (2537), apoptosis genes): 0.041 | IFNA2 log2FC (gene IFNA2 (3440), apoptosis genes): -0.017 | IFNB1 log2FC (gene IFNB1 (3456), apoptosis genes): 0.00571 | IL1A log2FC (gene IL1A (3552), apoptosis genes): -0.044 | IL2RA log2FC (gene IL2RA (3559), apoptosis genes): -0.031 | IL2RB log2FC (gene IL2RB (3560), apoptosis genes): 0.014 | IL12A log2FC (gene IL12A (3592), apoptosis genes): 0.00544 | log2FC IL12A (gene IL12A (Gene 3592), cell cycle genes): 0.00544 | IL12B log2FC (gene IL12B (3593), apoptosis genes): -0.025 | IL17A log2FC (gene IL17A (3605), apoptosis genes): -0.016 | IL19 log2FC (gene IL19 (29949), apoptosis genes): -0.00458 | ILK log2FC (gene ILK (3611), apoptosis genes): -0.066 | log2FC ILKAP (gene ILKAP (Gene 80895), cell cycle genes): 0.002 | INSL6 log2FC (gene INSL6 (11172), apoptosis genes): 0.055 | ISL1 log2FC (gene ISL1 (3670), apoptosis genes): -0.036 | ITGA6 log2FC (gene ITGA6 (3655), apoptosis genes): -0.050 | ITGB2 log2FC (gene ITGB2 (3689), apoptosis genes): -0.075 | ITM2C log2FC (gene ITM2C (81618), apoptosis genes): -0.082 | log2FC KATNB1 (gene KATNB1 (Gene 10300), cell cycle genes): 0.014 | log2FC KCNA5 (gene KCNA5 (Gene 3741), cell cycle genes): -0.012 | KDR log2FC (gene KDR (3791), apoptosis genes): -0.026 | log2FC (gene KIAA0101 (Gene 9768), cell cycle genes): 0.294 | KIAA1324 log2FC (gene KIAA1324 (57535), apoptosis genes): -0.008 | log2FC KIF2B (gene KIF2B (Gene 84643), cell cycle genes): -0.018 | log2FC (gene KIF13A (Gene 63971), cell cycle genes): 0.190 | log2FC (gene KIF23 (Gene 9493), cell cycle genes): 0.530 | log2FC KIF25 (gene KIF25 (Gene 3834), cell cycle genes): -0.013 | KLF4 log2FC (gene KLF4 (9314), apoptosis genes): -0.009 | KRT20 log2FC (gene KRT20 (54474), apoptosis genes): -0.037 | LALBA log2FC (gene LALBA (3906), apoptosis genes): 0.031 | log2FC LATS1 (gene LATS1 (Gene 9113), cell cycle genes): 0.043 | log2FC (gene LATS2 (Gene 26524), cell cycle genes): 0.213 | LCMT1 log2FC (gene LCMT1 (51451), apoptosis genes): -0.115 | LCN2 log2FC (gene LCN2 (3934), apoptosis genes): 0.046 | log2FC (gene LEMD3 (Gene 23592), cell cycle genes): 0.294 | LGALS1 log2FC (gene LGALS1 (3956), apoptosis genes): 0.017 | LGALS12 log2FC (gene LGALS12 (85329), apoptosis genes): 0.013 | LGALS14 log2FC (gene LGALS14 (56891), apoptosis genes): -0.009 | log2FC (gene LMNA (Gene 4000), cell cycle genes): -0.311 | LRP1 log2FC (gene LRP1 (4035), apoptosis genes): 0.0019 | log2FC (gene LRP6 (Gene 4040), cell cycle genes): -0.141 | log2FC (gene LSM11 (Gene 134353), cell cycle genes): 0.145 | LTA log2FC (gene LTA (4049), apoptosis genes): -0.039 | LTF log2FC (gene LTF (4057), apoptosis genes): 0.011 | MAD2L1 log2FC (gene MAD2L1 (4085), apoptosis genes): 0.081 | MAEL log2FC (gene MAEL (84944), apoptosis genes): -0.018 | log2FC MAEL (gene MAEL (Gene 84944), cell cycle genes): -0.018 | MAGED1 log2FC (gene MAGED1 (9500), apoptosis genes): -0.026 | MAGEH1 log2FC (gene MAGEH1 (28986), apoptosis genes): -0.040 | MAP2K5 log2FC (gene MAP2K5 (5607), apoptosis genes): -0.077 | MAP2K7 log2FC (gene MAP2K7 (5609), apoptosis genes): 0.020 | log2FC (gene MAP3K8 (Gene 1326), cell cycle genes): 0.390 | log2FC (gene MAP4 (Gene 4134), cell cycle genes): -0.267 | MAPK1 log2FC (gene MAPK1 (5594), apoptosis genes): -0.045 | log2FC (gene MAPK4 (Gene 5596), cell cycle genes): -0.157 | log2FC (gene MAPK6 (Gene 5597), cell cycle genes): 0.270 | MAPK8 log2FC (gene MAPK8 (5599), apoptosis genes): 0.027 | MAPK9 log2FC (gene MAPK9 (5601), apoptosis genes): 0.064 | log2FC (gene MAPK12 (Gene 6300), cell cycle genes): -0.374 | MAPT log2FC (gene MAPT (4137), apoptosis genes): -0.024 | log2FC MCM4 (gene MCM4 (Gene 4173), cell cycle genes): 0.015 | MDM4 log2FC (gene MDM4 (4194), apoptosis genes): 0.064 | log2FC (gene MED25 (Gene 81857), cell cycle genes): -0.377 | MKL1 log2FC (gene MKL1 (57591), apoptosis genes): 0.068 | MKNK1 log2FC (gene MKNK1 (8569), apoptosis genes): -0.00243 | MNDA log2FC (gene MNDA (4332), apoptosis genes): -0.056 | MSX2 log2FC (gene MSX2 (4488), apoptosis genes): 0.054 | MT3 log2FC (gene MT3 (4504), apoptosis genes): -0.266 | log2FC (gene MYOG (Gene 4656), cell cycle genes): -0.210 | NACA log2FC (gene NACA (4666), apoptosis genes): 0.023 | log2FC NANOG (gene NANOG (Gene 79923), cell cycle genes): -0.00653 | log2FC (gene NASP (Gene 4678), cell cycle genes): 0.392 | NCF1 log2FC (gene NCF1 (653361), apoptosis genes): -0.052 | NCF2 log2FC (gene NCF2 (4688), apoptosis genes): -0.027 | log2FC (gene NCOR1 (Gene 9611), cell cycle genes): 0.294 | NDUFS3 log2FC (gene NDUFS3 (4722), apoptosis genes): -0.101 | NEURL log2FC (gene NEURL (9148), apoptosis genes): -0.034 | NEUROD1 log2FC (gene NEUROD1 (4760), apoptosis genes): -0.043 | log2FC NEUROG1 (gene NEUROG1 (Gene 4762), cell cycle genes): 0.161 | NLE1 log2FC (gene NLE1 (54475), apoptosis genes): 0.057 | NME6 log2FC (gene NME6 (10201), apoptosis genes): -0.008 | log2FC NME6 (gene NME6 (Gene 10201), cell cycle genes): -0.008 | NOS1AP log2FC (gene NOS1AP (9722), apoptosis genes): 0.022 | NOTCH1 log2FC (gene NOTCH1 (4851), apoptosis genes): -0.090 | NOX5 log2FC (gene NOX5 (79400), apoptosis genes): -0.012 | log2FC NOX5 (gene NOX5 (Gene 79400), cell cycle genes): -0.012 | NTRK1 log2FC (gene NTRK1 (4914), apoptosis genes): -0.014 | log2FC (gene NUMA1 (Gene 4926), cell cycle genes): -0.415 | log2FC (gene NUP153 (Gene 9972), cell cycle genes): -0.238 | log2FC NUP155 (gene NUP155 (Gene 9631), cell cycle genes): -0.034 | log2FC (gene NUP188 (Gene 23511), cell cycle genes): -0.304 | NUPR1 log2FC (gene NUPR1 (26471), apoptosis genes): 0.023 | OSR1 log2FC (gene OSR1 (130497), apoptosis genes): -0.039 | P4HB log2FC (gene P4HB (5034), apoptosis genes): 0.022 | log2FC (gene PA2G4 (Gene 5036), cell cycle genes): -0.298 | PAFAH2 log2FC (gene PAFAH2 (5051), apoptosis genes): 0.046 | PAK6 log2FC (gene PAK6 (56924), apoptosis genes): -0.022 | log2FC PAK6 (gene PAK6 (Gene 56924), cell cycle genes): -0.022 | log2FC (gene PAPD5 (Gene 64282), cell cycle genes): 0.341 | PARK7 log2FC (gene PARK7 (11315), apoptosis genes): 0.028 | PAX2 log2FC (gene PAX2 (5076), apoptosis genes): 0.003 | log2FC PCNA (gene PCNA (Gene 5111), cell cycle genes): -0.00322 | PCSK9 log2FC (gene PCSK9 (255738), apoptosis genes): -0.039 | log2FC PDCD2L (gene PDCD2L (Gene 84306), cell cycle genes): 0.012 | PDCD5 log2FC (gene PDCD5 (9141), apoptosis genes): 0.123 | PDCL3 log2FC (gene PDCL3 (79031), apoptosis genes): -0.100 | PDE1B log2FC (gene PDE1B (5153), apoptosis genes): 0.004 | PDE3A log2FC (gene PDE3A (5139), apoptosis genes): -0.006 | log2FC PDE3A (gene PDE3A (Gene 5139), cell cycle genes): -0.006
